Like-named read-outs stand apart in the source and are kept apart here. Blank lines part the entries; values can stand above or below the compound they belong to.
Columns and labels:
[1] = test system: MOLT-4; test: Cell viability assay (MTS) in MOLT-4 cells; type: cell-based; conditions: Homo sapiens
Method: (§1) Acute lymphoblastic leukemia cells (MOLT-4 and RS4; 11) were incubated with increasing concentrations of Bcl-xL degraders for 48 h. Cell viability was measured by tetrazolium-based MTS assay.

[2] = test system: RS4; 11; test: Cell viability assay (MTS) in RS4; 11 cells; type: cell-based; conditions: Homo sapiens
Method: as §1

[3] = molecular target: VCB E3 ligase complex and Bcl-xL (Homo sapiens, UniProt P40337+Q07817); test: Ternary complex assay (AlphaLISA); type: binding; conditions: FIG. 5A
Method: To detect ternary complex formation induced by the compounds, AIphaLISA assay was used to measure luminescence signals arisen from proximity of Bcl-xL bounded acceptor beads and VHL- or CRBN—bounded donor beads. Briefly, to a 96-well PCR plate, 10 μL of 20 nM 6-His tagged Bcl-xL protein can be mixed with 10 μL of 20 nM GST-tagged VHL complex protein and 10 μL of serially diluted testing compounds. After incubating at room temperature for 30 […], 5 μL of 160 μg/mL Glutathione donor beads (PerkinEImer) was added and the mixture was incubated at dark for 15 min. 5 μL of 160 μg/mL of anti-His acceptor beads was added lastly and the mixture was incubated for an additional 45 min before being transferred to two adjacent wells (17 μL each) of 384-well white OptiPIate (PerkinEImer). The luminescence signals were detected on a Biotek's Synergy Neo2 multi-mode plate reader installed with an AphaScreen filter cube. All reagents were diluted in an assay buffer of 25 mM HEPES, pH 7.5, 100 mM NaCl, 0.1% BSA, and 0.005% tween 20 prior incubation.

[4] = molecular target: T1, Bcl-xL (Homo sapiens, UniProt Q07817); test: Protein degradation assay in Jurkat cells (Western blot), Bcl-xL; type: cell-based; parameters: endogenous in cells; host or cells: Jurkat cells; conditions: for degradation of Bcl-xL (immunoblot): FIGS. 2-3, increasing concentrations 16 hours, 100 nM for various durations; for duration of Bcl-xL degradation after wash-off: FIGS. 2C, 3C, 16 h treatment, cultured without compound 0 to 48; for degradation of BCL-XL by Western blotting analysis: FIG. 1, 16 hours
Method: (§2) Jurkat cells and human platelets were incubated with increasing concentrations of test compounds for 16 h. The cells were harvested and lysed in RIPA lysis buffer supplemented with protease and phosphatase inhibitor cocktails. An equal amount of protein ([…]) was resolved on a pre-cast 4-20% SDS-PAGE gel. Proteins were subsequently transferred to NOVEX PVDF membranes by electrophoresis. The membranes were blocked in blocking buffer (5% non-fat dry milk in TBS-T), and incubated with primary antibodies (at optimized concentrations) overnight at 4° C. After three washings in TBS-T, the membranes were incubated with an appropriate FIRP-conjugated secondary antibody for 1 h at room temperature. After extensive washing for three times, the proteins of interest was detected with ECL western blotting detection reagents and recorded with autoradiography (Pierce Biotech, Rockford, IL, USA). The primary antibodies for Bcl-xL (Cat #2762), Bcl-2 (Cat #2872), Mcl-1 (Cat #5453) and j-actin (Cat #4970) were purchased from Cell Signaling Technology. The relative band intensity was measured using ImageJ software and normalized to β-actin.

[5] = molecular target: T2, Bcl-2 (Homo sapiens, UniProt P10415); test: Protein degradation assay in Jurkat cells (Western blot), Bcl-2; type: cell-based; parameters: endogenous in cells; host or cells: Jurkat cells; conditions: for degradation of Bcl-2 (immunoblot): FIGS. 2-3, increasing concentrations 16 hours, 100 nM for various durations; for duration of Bcl-2 degradation after wash-off: FIGS. 2C, 3C, 16 h treatment, cultured without compound 0 to 48; for degradation of BCL-2 by Western blotting analysis: FIG. 1, 16 hours
Method: as §2

[6] = molecular target: T1, Bcl-xL; test: Protein degradation assay in human platelets (Western blot), Bcl-xL; type: cell-based; parameters: endogenous in cells; host or cells: human platelets; conditions: FIG. 4, 16 h
Method: as §2

[7] = molecular target: T2, Bcl-2; test: Protein degradation assay in human platelets (Western blot), Bcl-2; type: cell-based; parameters: endogenous in cells; host or cells: human platelets; conditions: FIG. 4, 16 h
Method: as §2

[8] = test system: human platelets; test: Platelet toxicity assay (MTS viability); type: cell-based; conditions: for IC50: Platelet, human platelets, 48 h; for Platelets/MOLT-4 IC50 Fold change: ratio of platelet IC50 to MOLT-4 IC50
Method: Platelet-rich plasma (PRP) was purchased from Life South Community Blood Centers (Gainesville, FL, USA). PRP was transferred into a 50 mL tube containing 5 mL of the acid citrate buffer (Cat. No. sc-214744, Santa Cruz Biotechnology). To prevent clotting, prostaglandin E1 (PGE1, Cat. No. sc-201223A, Santa Cruz Biotechnology, Dallas, TX, USA) and apyrase (Cat. No. A6237, Sigma-Aldrich, St. Louis, MO, USA) were added to final concentrations of […] and 0.2 U/mL, respectively. After gently mixing the solution, platelets were pelleted by centrifugation at 1200 g for 10 min without break. Pelleted platelets were gently washed without disturbing platelets using 2 mL of HEPES Tyrode's buffer (Cat. No. PY-921WB, Boston BioProducts, Ashland, MA, USA) containing […] PGE1 and 0.2 U/mL apyrase. After washing, pellets were gently suspended in 10 mL of HEPES Tyrode's buffer containing […] PGE1 and 0.2 U/mL apyrase. Then, the platelet number was counted using a HEMAVET 950FS hematology analyzer (Drew Scientific, Inc., Oxford, CT, USA). For viability assays, the platelet number was adjusted to 2×10^8/mL in HEPES Tyrode's buffer containing […] PGE1 and 0.2 U/mL apyrase. Each treatment was given in 2 mL of the platelet suspension in 15 mL polypropylene tubes. The tubes were placed on a rotating platform at room temperature, and the viability of platelets was measured after 48 h treatment by using the MTS reagent (Cat. No. G1111, Promega, Madison, WI, USA). The data were analyzed by the GraphPad Prism 7 software for the calculation of IC50 values.

[9] = MOLT-4, Table 2, 48 hr, MTS, read-out: Anti-Cancer Activity IC50 (48 hr) MOLT-4
[10] = RS4-11, Table 2, 48 hr, MTS, read-out: Anti-Cancer Activity IC50 (48 hr) RS4, 11
[11] = MOLT-4, 48 h, read-out: Anti-Cancer Activity IC50 (48 hr) MOLT-4
[12] = MOLT-4, 48 h, read-out: MOLT-4 48 h IC50
[13] = RS4-11, 48 h, read-out: Anti-Cancer Activity IC50 (48 hr) RS4, 11
[14] = RS4-11, 48 h, read-out: RS4 48 h IC50

T2 sequence (P10415 whole entry): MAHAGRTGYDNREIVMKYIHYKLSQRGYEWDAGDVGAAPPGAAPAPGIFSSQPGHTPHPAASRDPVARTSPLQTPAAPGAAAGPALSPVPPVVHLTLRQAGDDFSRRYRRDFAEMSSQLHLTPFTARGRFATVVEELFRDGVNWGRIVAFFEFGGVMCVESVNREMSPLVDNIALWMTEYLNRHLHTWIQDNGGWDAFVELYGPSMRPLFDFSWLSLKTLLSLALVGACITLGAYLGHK
T1 sequence (Q07817 whole entry): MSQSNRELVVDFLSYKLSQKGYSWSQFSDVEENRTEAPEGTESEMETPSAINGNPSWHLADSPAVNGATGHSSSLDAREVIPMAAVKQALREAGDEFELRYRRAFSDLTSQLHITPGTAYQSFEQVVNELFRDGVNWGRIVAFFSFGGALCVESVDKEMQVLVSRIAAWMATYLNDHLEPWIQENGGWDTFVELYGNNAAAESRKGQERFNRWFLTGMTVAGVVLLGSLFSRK
Chain of VCB E3 ligase complex and Bcl-xL (Q07817 whole entry): as above
Chain of VCB E3 ligase complex and Bcl-xL (P40337 whole entry): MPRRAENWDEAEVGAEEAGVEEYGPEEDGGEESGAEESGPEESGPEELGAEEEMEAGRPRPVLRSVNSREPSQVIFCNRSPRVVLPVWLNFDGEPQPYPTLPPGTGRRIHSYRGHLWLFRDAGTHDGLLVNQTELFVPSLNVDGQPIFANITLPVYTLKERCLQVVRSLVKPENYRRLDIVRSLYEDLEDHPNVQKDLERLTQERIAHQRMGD
Chain of VCB E3 ligase complex and Bcl-xL (Q15370 whole entry partner): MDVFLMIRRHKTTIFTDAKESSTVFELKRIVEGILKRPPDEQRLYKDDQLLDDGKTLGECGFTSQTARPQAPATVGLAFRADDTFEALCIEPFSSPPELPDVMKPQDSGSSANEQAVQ
Chain of VCB E3 ligase complex and Bcl-xL (Q15369 whole entry partner): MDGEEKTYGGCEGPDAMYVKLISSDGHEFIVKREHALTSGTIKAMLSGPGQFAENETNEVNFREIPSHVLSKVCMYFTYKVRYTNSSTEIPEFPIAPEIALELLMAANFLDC

SMILES: Cc1ncsc1-c1ccc([C@H](C)NC(=O)[C@@H]2C[C@@H](O)CN2C(=O)[C@@H](NC(=O)CN2CCN(CC(=O)N3CCN(C[C@]4(C)CCC(c5ccc(Cl)cc5)=C(CN5CCN(c6ccc(C(=O)NS(=O)(=O)c7ccc(N[C@H](CCN8CCCOCC8)CSc8ccccc8)c(S(=O)(=O)C(F)(F)F)c7)cc6)CC5)C4)CC3)CC2)C(C)(C)C)cc1 [Compound 77]
IC50 [1, 9]: < 20 nM
IC50 [2, 10]: < 20 nM
ternary complex formation with the VCB E3 ligase complex and Bcl-xL [3]: formed ternary complexes
degradation of Bcl-xL (immunoblot) [4]: dose- and time-dependently degraded
duration of Bcl-xL degradation after wash-off [4]: long-lasting
degradation of Bcl-2 (immunoblot) [5]: dose- and time-dependently degraded
duration of Bcl-2 degradation after wash-off [5]: long-lasting
Bcl-xL expression levels in human platelets [6]: do not affect
Bcl-2 expression levels in human platelets [7]: do not affect

SMILES: Cc1ncsc1-c1ccc([C@H](C)NC(=O)[C@@H]2C[C@@H](O)CN2C(=O)[C@@H](NC(=O)CN2CCN(CC(=O)N3CCN(CC4(C)CCC(c5ccc(Cl)cc5)=C(CN5CCN(c6ccc(C(=O)NS(=O)(=O)c7ccc(N[C@H](CCN8C[C@H]9C[C@@H]8CO9)CSc8ccccc8)c(S(=O)(=O)C(F)(F)F)c7)cc6)CC5)C4)CC3)CC2)C(C)(C)C)cc1 (stereo partly drawn) [Compound 68]
IC50 [1, 11]: < 20 nM
IC50 [1, 12]: 3.2 nM
IC50 [2, 13]: < 20 nM
IC50 [2, 14]: 5 nM
IC50 ([8]; Table 3, mean of two independent experiments in triplicates, read-out: Platelets 48 h IC50): 777 nM
IC50 ([8]; Table 6, 4 th time, read-out: Platelets 4 th time 48 h IC50): 777 nM
Platelets/MOLT-4 IC50 Fold change ([8]; Table 3): 240
Platelets/MOLT-4 IC50 Fold change ([8]; Table 6): 240
degradation of BCL-XL by Western blotting analysis [4]: exemplary degradation
degradation of Bcl-xL (immunoblot) [4]: dose- and time-dependently degraded
duration of Bcl-xL degradation after wash-off [4]: long-lasting
degradation of BCL-2 by Western blotting analysis [5]: exemplary degradation
degradation of Bcl-2 (immunoblot) [5]: dose- and time-dependently degraded
duration of Bcl-2 degradation after wash-off [5]: long-lasting
Bcl-xL expression levels in human platelets [6]: do not affect
Bcl-2 expression levels in human platelets [7]: do not affect

SMILES: Cc1ncsc1-c1ccc([C@H](C)NC(=O)[C@@H]2C[C@@H](O)CN2C(=O)[C@@H](NC(=O)CN2[C@@H]3CC[C@H]2CN(CC(=O)N2CCN(CC4(C)CCC(c5ccc(Cl)cc5)=C(CN5CCN(c6ccc(C(=O)NS(=O)(=O)c7ccc(N[C@H](CCN8CCOCC8)CSc8ccccc8)c(S(=O)(=O)C(F)(F)F)c7)cc6)CC5)C4)CC2)C3)C(C)(C)C)cc1 (stereo partly drawn) [Compound 32]
IC50 [1, 11]: < 20 nM
IC50 [2, 13]: < 20 nM
degradation of BCL-XL by Western blotting analysis [4]: exemplary degradation
degradation of BCL-2 by Western blotting analysis [5]: exemplary degradation

SMILES: Cc1ncsc1-c1ccc([C@H](C)NC(=O)[C@@H]2C[C@@H](O)CN2C(=O)[C@@H](NC(=O)CN2CCN(CC(=O)N3CCN(C[C@]4(C)CCC(c5ccc(Cl)cc5)=C(CN5CCN(c6ccc(C(=O)NS(=O)(=O)c7ccc(N[C@H](CCN8C[C@H]9C[C@@H]8CO9)CSc8ccccc8)c(S(=O)(=O)C(F)(F)F)c7)cc6)CC5)C4)CC3)CC2)C(C)(C)C)cc1 [Compound 105]
IC50 [1, 11]: < 20 nM
IC50 [1, 12]: 4 nM
IC50 [2, 13]: < 20 nM
IC50 [2, 14]: 3 nM
IC50 ([8]; Table 4, read-out: Platelets 48 h IC50): 777 nM

Continued, in another order:

IC50 [1, 9]: < 20 nM
IC50 ([1]; MOLT-4, Table 6, 48 h, read-out: MOLT-4 48 h IC50): 2.8 nM
IC50 [2, 10]: < 20 nM
IC50 ([2]; RS4-11, Table 6, 48 h, read-out: RS4 48 h IC50): 4.2 nM
degradation of BCL-XL by Western blotting analysis [4]: exemplary degradation
degradation of BCL-2 by Western blotting analysis [5]: exemplary degradation
SMILES: Cc1ncsc1-c1ccc([C@H](C)NC(=O)[C@@H]2C[C@@H](O)CN2C(=O)[C@@H](NC(=O)CCCCCCC(=O)N2CCN(CC3(C)CCC(c4ccc(Cl)cc4)=C(CN4CCN(c5ccc(C(=O)NS(=O)(=O)c6ccc(N[C@H](CCN7C[C@H]8C[C@@H]7CO8)CSc7ccccc7)c(S(=O)(=O)C(F)(F)F)c6)cc5)CC4)C3)CC2)C(C)(C)C)cc1 (stereo partly drawn) [Compound 65]
IC50 ([8]; Homo sapiens, Table 6, 4 th time, read-out: Platelets 4 th time 48 h IC50): 1600 nM
Platelets/MOLT-4 IC50 Fold change ([8]; Table 6): 711

IC50 [1, 9]: < 20 nM
IC50 [2, 10]: 20 to 100 nM
degradation of BCL-XL by Western blotting analysis [4]: exemplary degradation
degradation of BCL-2 by Western blotting analysis [5]: exemplary degradation
SMILES: Cc1ncsc1-c1ccc([C@H](C)NC(=O)[C@@H]2C[C@@H](O)CN2C(=O)[C@@H](NC(=O)CN2CCC(CC(=O)N3CCN(CC4(C)CCC(c5ccc(Cl)cc5)=C(CN5CCN(c6ccc(C(=O)NS(=O)(=O)c7ccc(N[C@H](CCN8CCOCC8)CSc8ccccc8)c(S(=O)(=O)C(F)(F)F)c7)cc6)CC5)C4)CC3)CC2)C(C)(C)C)cc1 (stereo partly drawn) [Compound 26]

IC50 [1, 9]: 20 to 100 nM
IC50 ([1]; MOLT-4, Table 3, 48 h, mean of two independent experiments in triplicates, read-out: MOLT-4 48 h IC50): 38.1 nM
IC50 [2, 10]: < 20 nM
SMILES: Cc1ncsc1-c1ccc([C@H](C)NC(=O)[C@@H]2C[C@@H](O)CN2C(=O)[C@@H](NC(=O)CCCCCCC(=O)N2CCN(CC3(C)CCC(c4ccc(Cl)cc4)=C(CN4CCN(c5ccc(C(=O)NS(=O)(=O)c6ccc(N[C@H](CCN(C)CCO)CSc7ccccc7)c([N+](=O)[O-])c6)cc5)CC4)C3)CC2)C(C)(C)C)cc1 (stereo partly drawn) [Compound 41, (2S,4R)-1-((2S)-2-(8-(4-((4′-chloro-6-((4-(4-(((4-(((R)-4-((2-hydroxyethyl)(methyl)amino)-1-(phenylthio)butan-2-yl)amino)-3-nitrophenyl)sulfonyl)carbamoyl)phenyl)piperazin-1-yl)methyl)-4-methyl-2,3,4,5-tetrahydro-[1,1′-biphenyl]-4-yl)methyl)piperazin-1-yl)-8-oxooctanamido)-3,3-dimethylbutanoyl)-4-hydroxy-N—((S)-1-(4-(4-methylthiazol-5-yl)phenyl)ethyl)pyrrolidine-2-carboxamide]
IC50 ([8]; Homo sapiens, Table 3, mean of two independent experiments in triplicates, read-out: Platelets 48 h IC50): 4900 nM
Platelets/MOLT-4 IC50 Fold change ([8]; Table 3): 128

— US20250154141A1 (University of Florida Research Foundation, Incorporated, priority 2021, published 2025)
